Results on 59 compounds are retold here after patent publication US20100081679A1, “DIAMINOPYRIMIDINES AS FUNGICIDES” (Bayer CropScience AG, priority 2007, published 2010).

Marks after values point to notes of the source that are not given here.

A short description of the series: logP determination via retention times, calibrated with unbranched alkan-2-ones. The class given is physicochemical.
[1] abbreviates: HPLC reversed-phase C 18, EEC Directive 79/831 Annex V.A8, method *: 40° C., 0.1% aqueous formic acid and acetonitrile, linear gradient 10% to 95% acetonitrile.
[2] abbreviates: HPLC on reversed-phase C18, method *: 40° C., 0.1% aqueous formic acid and acetonitrile, linear gradient 10% to 95% acetonitrile.
[3] abbreviates: HPLC on reversed-phase C18, method **: 43° C., mobile phase 0.1% aqueous phosphoric acid and acetonitrile, linear gradient 10% to 95% acetonitrile.
Where [4] appears, read: method *: HPLC reversed-phase C18, 40° C., 0.1% aqueous formic acid and acetonitrile, linear gradient 10% to 95% acetonitrile.
Setting [5] is: HPLC on reversed-phase C18, method *: 40° C., mobile phase 0.1% aqueous formic acid and acetonitrile, linear gradient 10% to 95% acetonitrile.
The mark [6] stands for this setting: method **: HPLC reversed-phase C 18, 43° C., 0.1% aqueous phosphoric acid and acetonitrile, linear gradient 10% to 95% acetonitrile.
Where [7] appears, read: HPLC on reversed-phase C 18, EEC Directive 79/831 Annex V.A8, method *: 40° C., 0.1% aqueous formic acid and acetonitrile, linear gradient 10% to 95% acetonitrile.
Where [8] appears, read: method *: HPLC, reversed-phase C 18, 40° C., mobile phase 0.1% aqueous formic acid and acetonitrile, linear gradient from 10% to 95% acetonitrile.
Setting [9] is: method *: HPLC reversed-phase C 18, temperature 40° C., mobile phase 0.1% aqueous formic acid and acetonitrile, linear gradient 10% to 95% acetonitrile.

With `Oc1c(Cl)cc(Nc2ncc(Cl)c(NC3CC3)n2)cc1Cl` [compound 845], the logP under setting [1] is recorded as 1.99*.

In the case of `CC(C)C(=O)Nc1ccc(Nc2ncc(Cl)c(NC3CC3)n2)cc1` [compound 111], the logP under setting [2] was 1.43*.

On to `CC(C)(C)NS(=O)(=O)Cc1cccc(Nc2ncc(Cl)c(NC3CC3)n2)c1` [compound 327], for which, under setting [3], the logP is recorded as 2.05**.

As for `CCC(C)Sc1cccc(Nc2ncc(Cl)c(NC3CC3)n2)c1` (stereo not drawn) [compound 665], the logP under setting [2] is listed as 3.69*.

As for `N#Cc1cnc(Nc2ccccc2)nc1NCC1CC1` [compound 87], the logP under setting [4] is listed as 2.77*.

As to `CCOC(=O)C1(Nc2nc(Nc3cc(OC)c(OC)c(OC)c3)ncc2Cl)CC1` [compound 317], the logP under setting [5] was 2.01*.

As to `CC(=O)NS(=O)(=O)c1ccc(Nc2ncc(Cl)c(NC3CC3)n2)cc1` [Example 24], the logP under setting [6] is on record as 1.64**.

Turning to `FC(F)Oc1cccc(Nc2ncc(Cl)c(NC3CC3)n2)c1` [compound 534], the logP under setting [7] was 2.51*.

With `Clc1cnc(Nc2ccc(Sc3ccccc3)cc2)nc1NC1CC1` [compound 1013], under setting [8], the logP is 3.69*.

In the case of `O=C1CCc2cc(Nc3ncc(Cl)c(NCC4CC4)n3)ccc2N1` [compound 517], the logP under setting [7] was 1.19*.

As to `Cc1ccc(Nc2ncc(Cl)c(NC3CC3)n2)cc1S(=O)(=O)N(C)C` [Example 47], the logP under setting [6] is 2.14**.

Consider `CC1CC(C)CN(c2cccc(Nc3ncc(Br)c(NC4CC4)n3)c2)C1` (stereo not drawn) [compound 529], for which, under setting [7], the logP is listed as 2.63*.

As to `Cc1cc(Nc2ncc(Br)c(NC3CC3)n2)ccc1O` [compound 116], under setting [2], the logP was 1.35*.

Turning to `CNC(=O)c1cccc(Nc2ncc(Br)c(NC3CC3)n2)c1` [compound 383], the logP under setting [4] is recorded as 1.39*.

Turning to `CSc1ccc(Nc2ncc(C(F)(F)F)c(NC3CC3)n2)cc1Cl` [compound 646], under setting [9], the logP is 4.08*.

Take `N#Cc1cccc(Nc2ncc(Cl)c(NCC3CC3)n2)c1` [compound 685]: the logP under setting [2] is recorded as 2.26*.

Take `CCOC(=O)Nc1ccc(Nc2ncc(Cl)c(NCC3CC3)n2)cc1` [compound 543]: the logP under setting [7] is on record as 1.8*.

With `Oc1ccc(Nc2ncc(Cl)c(NC3CC3)n2)cc1` [Example 75], under setting [4], the logP is 1.12*.

With `Oc1ccc(Nc2ncc(Br)c(NCC3CC3)n2)c(F)c1` [compound 478], the logP under setting [7] is recorded as 1.51*.

As for `COc1cnc(Cl)nc1NC1CC1` [2-chloro-N-cyclopropyl-5-methoxypyrimidine-4-amine], the chromatographic logP (pH 2.3, read-out: logP (pH2.3)) was 1.38.

For the compound `CC(=O)Nc1ccc(Nc2ncc(Br)c(NCC3CC3)n2)cc1Cl` [compound 479], under setting [7], the logP is recorded as 1.68*.

As to `CCSc1cccc(Nc2ncc(Cl)c(NC3CC3)n2)c1` [compound 436], under setting [4], the logP is given as 2.72*.

As to `O=C1CCCCN1c1ccc(Nc2ncc(Cl)c(NC3CC3)n2)cc1` [compound 569], under setting [9], the logP was 1.47*.

Turning to `COC(=O)Nc1ccc(Nc2ncc(C)c(NC3CC3)n2)cc1` [compound 446], the logP under setting [4] is 1.06*.

`CCSC(C)c1cccc(Nc2ncc(Br)c(NC3CC3)n2)c1` (stereo not drawn) [compound 797]: under setting [1], the logP is 3.09*.

Regarding `FC(F)Oc1ccc(Nc2ncc(Cl)c(NCC3CC3)n2)cc1` [compound 538], under setting [7], the logP was 2.25*.

Take `Brc1cnc(Nc2ccc(OCCN3CCCCC3)cc2)nc1NC1CC1` [compound 117]: under setting [2], the logP was 1.07*.

In the case of `CN(C(=O)C(C)(C)C)c1ccc(Nc2ncc(Cl)c(NCC3CC3)n2)cc1` [compound 525], under setting [7], the logP is given as 2.02*.

Take `FC(F)Oc1cc(Nc2ncc(Br)c(NC3CC3)n2)ccc1Cl` [compound 311]: the logP under setting [5] was 3.44*.

`N#CCc1cccc(Nc2ncc(Cl)c(NC3CC3)n2)c1` [compound 712]: the logP under setting [2] is given as 1.66*.

`CS(=O)(=O)Nc1ccc(Nc2ncc(Cl)c(NCC3CC3)n2)cc1` [compound 697]: the logP under setting [2] is on record as 1.51*.

Turning to `CCNC(=O)c1cccc(Nc2ncc(Cl)c(NC3CC3)n2)c1` [compound 631], the logP under setting [9] was 1.35*.

For `CCCOc1cccc(Nc2ncc(C(F)(F)F)c(NC3CC3)n2)c1` [compound 699], the logP under setting [2] was 3.92*.

Take `CCC(=O)c1cc(Nc2ncc(Br)c(NCC3CC3)n2)ccc1O` [compound 488]: under setting [7], the logP is given as 2.21*.

Regarding `O=C(Nc1ccc(Nc2ncc(F)c(NC3CC3)n2)cc1)C(F)(F)F` [compound 583], under setting [9], the logP is 1.58*.

For the compound `N#Cc1ccccc1Nc1ncc(Cl)c(NC2CC2)n1` [compound 881], the logP under setting [2] is 0.85*.

On to `CCC(=O)Nc1cc(Nc2ncc(Br)c(NCC3CC3)n2)ccc1O` [compound 494], for which the logP under setting [7] is given as 1.97*.

In the case of `C#Cc1cccc(Nc2ncc(Br)c(NC3CC3)n2)c1` [compound 340], the logP under setting [5] was 2.41*.

In the case of `CSC(C)c1cccc(Nc2ncc(Cl)c(NC3CC3)n2)c1` (stereo not drawn) [compound 807], the logP under setting [1] was 2.52*.

For `C#Cc1cccc(Nc2ncc(C(F)(F)F)c(NC3CC3)n2)c1` [compound 627], under setting [9], the logP was 3.36*.

For `CSc1cccc(Nc2nc(C)c(Cl)c(NC3CC3)n2)c1` [compound 837], under “HPLC reversed-phase C 18, EEC Directive 79/831 Annex V.A8, method **: 43° C., 0.1% aqueous phosphoric acid and acetonitrile, linear gradient 10% to 95% acetonitrile”, the logP is reported as 2.23**.

With `CC(C)NS(=O)(=O)Cc1ccc(Nc2ncc(Cl)c(NC3CC3)n2)cc1` [compound 324], the logP under setting [3] was 1.75**.

With `Oc1ccc(Nc2ncc(Cl)c(NCC3CC3)n2)c(F)c1` [compound 694], the logP under setting [2] is 1.46*.

As to `CC(Nc1nc(Nc2ccccc2)ncc1Cl)C1CC1` (stereo not drawn) [compound 166], the logP under setting [2] was 2.14*.

On to `O=C1CCC(=O)N1c1cccc(Nc2ncc(Br)c(NC3CC3)n2)c1` [compound 447], for which, under setting [4], the logP was 1.38*.

Consider `COC(=O)Nc1ccc(Nc2ncc(F)c(NC3CC3)n2)cc1` [compound 594], for which, under setting [9], the logP is on record as 1.28*.

Turning to `COC(=O)Cc1ccc(Nc2ncc(Cl)c(NC3CC3)n2)cc1` [compound 287], the logP under setting [5] is 1.85*.

Consider `CC(C)(C)OC(=O)NCc1ccc(Nc2ncc(C#N)c(NC3CC3)n2)cc1` [compound 615], for which the logP under setting [9] is recorded as 2.77*.

`CN(C)C(=O)c1ccc(Nc2ncc(Br)c(NCC3CC3)n2)cc1` [compound 452]: the logP under setting [4] is recorded as 1.66*;.

In the case of `FC(F)(F)Oc1ccc(Nc2ncc(Br)c(NCC3CC3)n2)cc1` [compound 476], the logP under setting [7] is 3.1*.

With `COc1ccc(Nc2ncc(C(F)(F)F)c(NC3CC3)n2)cc1` [compound 641], the logP (method **: HPLC reversed-phase C 18, temperature 43° C., mobile phase 0.1% aqueous phosphoric acid and acetonitrile, linear gradient 10% to 95% acetonitrile) was 2.41**; the logP under setting [9] was 2.21*;.

`COCCOc1cccc(Nc2ncc(C(F)(F)F)c(NC3CC3)n2)c1` [compound 1041]: under setting [8], the logP is on record as 2.78*.

For `CN(c1nc(Nc2cccc(N3CCCC3=O)c2)ncc1Cl)C1CC1` [compound 769], the logP (HPLC on reversed-phase C 18, method **: 43° C., 0.1% aqueous phosphoric acid and acetonitrile, linear gradient 10% to 95% acetonitrile) is recorded as 2.22**.

On to `CCC(=O)c1cccc(Nc2ncc(Br)c(NC3CC3)n2)c1` [compound 305], for which, under setting [5], the logP was 2.32*.

For `COc1ccc(CN(c2nc(Nc3cccc(SC)c3)ncc2Cl)C2CC2)cc1` [compound 1026], the logP (method **: HPLC, reversed-phase C 18, 43° C., mobile phase 0.1% aqueous phosphoric acid and acetonitrile, linear gradient from 10% to 95% acetonitrile) is 4.78**.

With `COC(=O)Nc1cccc(Nc2ncc(F)c(NC3CC3)n2)c1` [compound 598], the logP under setting [9] is 1.37*.

As for `Clc1cnc(Nc2cccc(-c3nccs3)c2)nc1NC1CC1` [compound 297], under setting [5], the logP is given as 2.21*.

Regarding `CCCNS(=O)(=O)Cc1ccc(Nc2ncc(Cl)c(NC3CC3)n2)cc1` [compound 371], the logP under setting [4] is recorded as 1.79*.

With `CC(C)(C)OC(=O)Nc1ccc(Nc2ncc(Cl)c(NCC3CC3)n2)cc1` [compound 522], the logP under setting [7] is 2.18*.
